Earlier results as cited in US9447074B2, “Compounds” (Glaxo Group Limited, priority 2011, dated 2016).

Legend:
[1] = test system: B-Cell non-Hodgkin's lymphoma (NHL)
B lymphoma (BKS-2) = details: murine model of B lymphoma (BKS-2)
allergic rhinitis [2] = details: dosed intranasally, phase I/II
allergic rhinitis [3] = details: phase II

In the case of `COc1cc(Nc2ncc(F)c(Nc3ccc4c(n3)N(COP(=O)(O)O)C(=O)C(C)(C)O4)n2)cc(OC)c1OC` [Example R788, fostamatinib disodium], the therapeutic benefit ([1]; patients with DLBCL and CLL/SLL) is given as “therapeutic benefit” and the tolerability ([1]; patients with relapsed or refractory B-Cell NHL) is given as “well-tolerated”.
For `COc1cc(/C=C/C(=O)CC(=O)/C=C/c2ccc(O)c(OC)c2)ccc1O` [curcumin], the “tumour burden as measured by the total splenocyte number” value (B lymphoma (BKS-2)) is given as “significant reduction of tumour burden”.
For `Oc1cccc(Nc2ncc(F)c(Nc3cccc(O)c3)n2)c1` [Example R112], the PGD2 (allergic rhinitis [2]) is listed as “statistically significant decrease”, the clinical safety (allergic rhinitis [2]) is listed as “safe across a range of indicators” and the efficacy versus placebo (allergic rhinitis [3]) is listed as “lack of efficacy versus placebo”.
